Values of other authors in patent publication US20180110939A1, “METHOD, SYSTEM AND APPARATUS FOR CONTROLLED DELIVERY OF OPIOID AND OTHER MEDICATIONS” (Somniferum Labs LLC, priority 2016, published 2018).

What was measured:
[1] = in vivo
[2] = in vivo; remark: listed apart in the source
[3] = for share of the total area under the concentration-time curve of morphine and its principle metabolites: following intravenous (IV) morphine administration in humans
[4] = converted via the liver

## CN1CC[C@]23c4c5ccc(O)c4O[C@H]2[C@@H](O[C@@H]2O[C@H](C(=O)O)[C@@H](O)[C@H](O)[C@H]2O)C=C[C@H]3[C@H]1C5 [M-6-G, morphine-6-glucuronide]
[1]
  plasma concentrations higher than morphine: approximately 4 fold
[2]
  LD50 (lethal dose): no LD50
[3]; following IV administration, h.p.l.c. method
  time from which M-6-G was present in higher concentrations than morphine: ≥ 1 h
[3]
  share of the total area under the concentration-time curve of morphine and its principle metabolites: 15%
other
  plasma protein binding: low

## CN1CC[C@]23c4c5ccc(O[C@@H]6O[C@H](C(=O)O)[C@@H](O)[C@H](O)[C@H]6O)c4O[C@H]2[C@@H](O)C=C[C@H]3[C@H]1C5 [M-3-G, morphine-3-glucuronide, reference compound]
[3]
  share of the total area under the concentration-time curve of morphine and its principle metabolites: approximately 75%
[4]
  amount generated relative to M-6-G from a given amount of morphine: 5 times
